This passage reports IC50 and AC50 results from patent US9181266B2, “2-piperidin-1-yl-acetamide compounds for use as tankyrase inhibitors” (NOVARTIS AG, priority 2011, dated 2015).

The structures appear in SMILES notation.

In assay [1] the target is human tankyrase 1 PARP catalytic domain, TNKS1P (Homo sapiens (Human), UniProt O95271). The experiment in a line: TNKS1 autoparsylation assay (LC/MS detection of nicotinamide). The following applies: read-out: TNKS1 AP IC50, 20 nM enzyme, 250 μM β-NAD+, 60 min.
Procedure: Biochemical Assay to Determine Compound Inhibition of TNKS Enzyme Activity
The autoparsylation activity of the TNKS 1/2 or PARP1/2 enzymes was measured by the liquid chromatography-mass spectrometry (LC/MS) detection of nicotinamide as readout. Compound activity in inhibiting the TNKS and PARP autoparsylation was evaluated by IC50 measurements. […] For the background control wells, 10 μL of the 5× quenching solution per well was added prior to the addition of β-NAD^+. The % Inhibition was calculated as: (Control−Sample)/(Control−Background)*100.
The test system of assay [2] is Wnt ligand-induced signaling in HEK293 cells. As to the kind of experiment: Wnt-responsive Super-TOpFlash (STF) luciferase reporter gene assay. In kind it is cell-based. The following applies: Homo sapiens, Wnt3A condition medium. How it is done: Cellular Reporter Gene Assay to Determine Compound Inhibition of Wnt Signaling Activity
Compound activity in inhibiting Wnt ligand-induced signaling was measured using a Wnt-responsive Super-TOpFlash (STF) luciferase reporter gene assay in HEK293 cells. On day 1 of the assay, cells were plated at a density of 8000 cells per well of 384-well plate in 25 μl medium containing 5% fetal bovine serum (FBS). On the second day, […] condition medium (CM) produced from mouse L cells was added to the cells to induce Wnt signaling, followed by addition of 5 μL of compounds each well in 10-point serial dilution. On the third day, the luciferase activity was measured by the Bright-Glo™ Luciferase Assay System following manufacture's protocol (Promega, E2620). The Inhibition was calculated as: (Maximum Wnt-induced signaling−Sample)/(Maximum Wnt-induced signaling−Background)*100. “Maximum Wnt-induced signaling” is the STF signal level induced by 20% Wnt3A CM without compound; and “Background” is the STF signal level without the addition of Wnt3A CM or compound.
Background: Reporter assays use an easily measured gene product as a stand-in for the process of interest.

Assay [3] concerns Axin2 protein in SW480 cells. As to the kind of experiment: Cellular ELISA assay of Axin2 protein stabilization. The format is cell-based. The following applies: Homo sapiens, 24 hrs, read-out: Axin AC50. How it is done: Cellular ELISA Assay to Determine Compound Effect on Stabilizing the Axin2 Protein Compound activity in stabilizing the Axin2 protein was measured by Sandwich Enzyme-Linked Immuosorbent (ELISA) assay in the colorectal cell line SW480. 30,000 SW480 cells were seeded per well in 96-well plate and incubated overnight prior to compound treatment. […] Cells were then washed with 100 μL of cold Phosphate Buffer Saline (PBS), and lysed in 125 μl of cold 1× lysis buffer (Cell Signaling Technology, 9803) supplemented with Protease inhibitor (Roche, 11836170) and Phosphatase inhibitors (Sigma, P2850, P5726). For the ELISA assay, anti Axin-2 capture antibody (Strategic Diagnostics) antibody was diluted to a concentration of 1 μg/ml (1:1000) in Carbonate Coating buffer, pH 9.2 (Sigma, C3041-50CAP). […], of the diluted anti Axin-2 capture antibody per well was then used to coat the 96-well ELISA plate (Thermo Electron Corp., MicroLite 1 flat bottom plate #7571) overnight at 4° C. […] After blocking, plates were then washed three times with 300 μl/well of wash solution. 100 μL of prepared SW480 cell lysate was then added to each well and incubated at room temperature for 2 hours while shaking gently. After washing, 100 μL of Biotinylated anti-Axin2 antibody (CST, 2151) was added to each well and incubated room temperature for 2 hours. 100 μL of Streptavidin-HRP (R&D systems, DY998) diluted 1:200 in 1% BSA/PBS was then added in each well and incubate for 30 mins at R/T in the dark.
On the technique in general: ELISA stands for enzyme-linked immunosorbent assay.

Assay [4] has as its target tankyrase 2 protein PARP domain, TNKS2P (Homo sapiens (Human), UniProt Q9H2K2). The experiment in a line: TNKS2 autoparsylation assay (LC/MS detection of nicotinamide). The following applies: read-out: TNKS2 AP IC50, 20 nM enzyme, 250 μM β-NAD+, 60 min.
For assay [5], the system named is Non-small lung cancer ABC-1 cells. As to the kind of experiment: Cellular proliferation assay (CellTiter-Glo). The following applies: Homo sapiens, 72 h; ABC-1 cells, 3 days of compound treatment; read-out: ABC-1 IC50. The format is cell-based.
Procedure: Cellular Proliferation Assay to Determine Compound Inhibition of Cancer Cell Growth
Viable cells were measured after 3 days of compound treatment using the CellTiter-Glo assay (Promega, G7570). Assay was performed following the manufacture protocol.

The IC50 is the midpoint of a concentration-inhibition curve. The AC50 is the concentration giving half of the maximal activity seen.

Chain of tankyrase 2 protein PARP domain, TNKS2P (Q9H2K2 959-1164): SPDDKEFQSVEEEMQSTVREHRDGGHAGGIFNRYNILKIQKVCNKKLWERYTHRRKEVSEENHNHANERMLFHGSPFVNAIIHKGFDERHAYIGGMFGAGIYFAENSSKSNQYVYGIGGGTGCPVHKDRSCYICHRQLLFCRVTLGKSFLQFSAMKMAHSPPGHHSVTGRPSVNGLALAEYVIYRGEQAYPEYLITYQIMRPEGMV
Chain of human tankyrase 1 PARP catalytic domain, TNKS1P (O95271 1112-1317): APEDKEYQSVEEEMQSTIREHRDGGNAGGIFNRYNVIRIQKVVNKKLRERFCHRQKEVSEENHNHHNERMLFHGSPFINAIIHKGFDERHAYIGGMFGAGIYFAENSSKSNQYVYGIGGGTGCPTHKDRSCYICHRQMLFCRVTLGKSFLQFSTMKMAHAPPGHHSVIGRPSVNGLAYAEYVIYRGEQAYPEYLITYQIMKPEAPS

Regarding `COc1ccc(C(=O)C2CCN(CC(=O)NCc3nc4c(c(=O)[nH]3)CCCCC4)CC2)cc1` [Example 6, 2-(4-(4-Methoxybenzoyl)piperidin-1-yl)-N-((4-oxo-4,5,6,7,8,9-hexahydro-3H-cyclohepta[d]pyrimidin-2-yl)methyl)acetamide], the IC50 came out at 575 ± 25 nM in assay [1], 56 ± 7 nM in assay [2], 353 ± 8 nM in assay [4] and 484 nM in assay [5]. Also, the half-maximal activity concentration (AC50) in assay [3] came out at 293 ± 8 nM.
The matching figures for `COc1ccc(C(=O)C2CCN(CC(=O)N(Cc3nc4c(c(=O)[nH]3)CCCCC4)CC3CC3)CC2)cc1` [Example 7, N-(Cyclopropylmethyl)-2-(4-(4-methoxybenzoyl)piperidin-1-yl)-N-((4-oxo-4,5,6,7,8,9-hexahydro-3H-cyclohepta[d]pyrimidin-2-yl)methyl)acetamide]: 714 ± 5 nM, 180 ± 70 nM, 371 ± 3 nM, 691 nM and 680 ± 90 nM.
Consider `O=C(c1ccc(F)cc1)C1CCN(CC(=O)N(Cc2ccccn2)Cc2nc3c(c(=O)[nH]2)COCC3)CC1` [Example 22, 2-(4-(4-Fluorobenzoyl)piperidin-1-yl)-N-((4-oxo-4,5,7,8-tetrahydro-3H-pyrano[4,3-d]pyrimidin-2-yl)methyl)-N-(pyridin-2-ylmethyl)acetamide], for which the IC50 in assay [1] amounted to 120 ± 2 nM; in assay [5], 540 ± 280 nM. Also, the AC50 in assay [3] is 360 ± 190 nM.
The matching figures for `CC(C)CN(Cc1nc2c(c(=O)[nH]1)COCC2)C(=O)CN1CCC(C(=O)c2ccc(F)cc2)CC1` [Example 26, 2-(4-(4-Fluorobenzoyl)piperidin-1-yl)-N-isobutyl-N-((4-oxo-4,5,7,8-tetrahydro-3H-pyrano[4,3-d]pyrimidin-2-yl)methyl)acetamide]: 70 ± 7 nM, 545 nM and 473 ± 36 nM.
The matching figures for `O=C(c1ccc(F)cc1)C1CCN(CC(=O)N(Cc2ccccc2)Cc2nc3c(c(=O)[nH]2)COCC3)CC1` [Example 38, N-Benzyl-2-(4-(4-fluorobenzoyl)piperidin-1-yl)-N-((4-oxo-4,5,7,8-tetrahydro-3H-pyrano[4,3-d]pyrimidin-2-yl)methyl)acetamide]: 82 ± 1 nM, 833 nM and 372 ± 86 nM.
`O=C(CN1CCC(c2nnc(-c3ccccc3)o2)CC1)NCc1nc2c(c(=O)[nH]1)COCC2` [Example 52, N-(4-Oxo-3,5,7,8-tetrahydro-4H-pyrano[4,3-d]pyrimidin-2-ylmethyl)-2-[4-(5-phenyl-[1,3,4]oxadiazol-2-yl)-piperidin-1-yl]-acetamide]: the IC50 was 1190 ± 150 nM in assay [1], 155 ± 8 nM in assay [2], 170 ± 30 nM in assay [4] and 2800 nM in assay [5]. For the same compound, the AC50 in assay [3] amounted to 1090 ± 170 nM.
The matching figures for `COCCN(Cc1nc2c(c(=O)[nH]1)COCC2)C(=O)CN1CCC(c2nnc(-c3ccccc3)o2)CC1` [Example 53]: 1130 ± 270 nM, 430 ± 50 nM, 142 ± 19 nM, 2160 nM and 2100 ± 200 nM.
The matching figures for `O=C(CN1CCC(c2nnc(-c3ccc(F)cc3)o2)CC1)NCc1nc2c(c(=O)[nH]1)COCC2` [Example 55, 2-{4-[5-(4-Fluoro-phenyl)-[1,3,4]oxadiazol-2-yl]piperidin-1-yl}-N-(4-oxo-3,5,7,8-tetrahydro-4H-pyrano[4,3-d]pyrimidin-2-ylmethyl)-acetamide]: 487 ± 16 nM, 4.7 ± 1.8 nM, 78 ± 4 nM, 83 nM and 25 ± 5 nM.
For `O=C(CN1CCC2(CC1)Cc1cc(F)ccc1C2=O)N(Cc1nc2c(c(=O)[nH]1)COCC2)CC1CC1` [Example 62, N-(Cyclopropylmethyl)-2-(5-fluoro-1-oxo-1,3-dihydrospiro[indene-2,4′-piperidine]-1′-yl)-N-((4-oxo-4,5,7,8-tetrahydro-3H-pyrano[4,3-d]pyrimidin-2-yl)methyl)acetamide], the IC50 in assay [1] worked out at 17 ± 1 nM; in assay [2], 115 ± 17 nM; in assay [4] it was 4 ± 1 nM; in assay [5] it was 470 nM. For the same compound, the AC50 in assay [3] came to 560 ± 150 nM.
The matching figures for `COc1ccc2c(c1)CC1(CCN(CC(=O)N(Cc3nc4c(c(=O)[nH]3)COCC4)CC3CC3)CC1)C2=O` [Example 63, N-(Cyclopropylmethyl)-2-(5-methoxy-1-oxo-1,3-dihydrospiro[indene-2,4′-piperidine]-1′-yl)-N-((4-oxo-4,5,7,8-tetrahydro-3H-pyrano[4,3-d]pyrimidin-2-yl)methyl)acetamide]: 10 ± 1.4 nM, 11.9 ± 3.1 nM, 1 ± 1.4 nM, 158 nM and 137 ± 31 nM.
For the compound `COc1ccc2c(c1)CC1(CCN(CC(=O)N(Cc3nc4c(c(=O)[nH]3)COCC4)CC(F)F)CC1)C2=O` [Example 64, N-(2,2-Difluoro-ethyl)-2-(5-methoxy-1-oxo-1,3-dihydrospiro[indene-2,4′-piperidine]-1′-yl)-N-((4-oxo-4,5,7,8-tetrahydro-3H-pyrano[4,3-d]pyrimidin-2-yl)methyl)acetamide], the IC50 in assay [1] came out at 10 ± 1.4 nM; in assay [2], 1.2 ± 0.5 nM; in assay [4], 2.5 ± 0.7 nM; in assay [5] it was 12 nM. In addition, in assay [3], the AC50 came to 9 ± 3 nM.
In the case of `O=C(CN1CCC2(CCc3ccccc3C2=O)CC1)NCc1nc2c(c(=O)[nH]1)COCC2` [Example 65, 2-(1-oxo-3,4-dihydro-1H-spiro[naphthalene-2,4′-piperidine]-1′-yl)-N-((4-oxo-4,5,7,8-tetrahydro-3H-pyrano[4,3-d]pyrimidin-2-yl)methyl)acetamide], the half-inhibitory concentration (IC50) in assay [1] stood at 3100 ± 400 nM; in assay [2], 0.7 ± 0.2 nM; in assay [4], 760 ± 15 nM; in assay [5] it was 26 nM. Further, the AC50 in assay [3] was 12 ± 3 nM.
Regarding `O=C(c1ccccc1)C1CCN(CC(=O)N(Cc2nc3c(c(=O)[nH]2)COCC3)CC(F)F)CC1` [Example 68, 2-(4-Benzoyl-piperidin-1-yl)-N-(2,2-difluoro-ethyl)-N-(4-oxo-3,5,7,8-tetrahydro-4H-pyrano[4,3-d]pyrimidin-2-ylmethyl)-acetamide], the IC50 came to 31 ± 1 nM in assay [1], 5.2 ± 0.8 nM in assay [2], 5 ± 1 nM in assay [4] and 75 nM in assay [5]. For the same compound, the AC50 in assay [3] was determined as 41 ± 7 nM.
The matching figures for `O=C(c1ccc(Cl)cc1)C1CCN(CC(=O)N(Cc2nc3c(c(=O)[nH]2)COCC3)CC(F)F)CC1` [Example 69, 2-[4-(4-Chloro-benzoyl)-piperidin-1-yl]-N-(2,2-difluoro-ethyl)-N-(4-oxo-3,5,7,8-tetrahydro-4H-pyrano[4,3-c]pyrimidin-2-ylmethyl)-acetamide]: 35 ± 4 nM, 20 ± 9 nM, 18 ± 1 nM, 709 nM and 930 ± 450 nM.
The matching figures for `COc1ccccc1C(=O)C1CCN(CC(=O)N(Cc2nc3c(c(=O)[nH]2)COCC3)CC(F)F)CC1` [Example 72, N-(2,2-Difluoro-ethyl)-2-[4-(2-methoxy-benzoyl)-piperidin-1-yl]-N-(4-oxo-3,5,7,8-tetrahydro-4H-pyrano[4,3-d]pyrimidin-2-ylmethyl)-acetamide]: 420 ± 110 nM, 8.7 ± 0.3 nM, 85 ± 20 nM, 96 nM and 52 ± 28 nM.
